Data on seven molecules can be found in publication PMC11126915, “iATPSnFR2: A high-dynamic-range fluorescent sensor for monitoring intracellular ATP” (Proceedings of the National Academy of Sciences of the …, 2024).

The subject of experiment [1] is LMTK- cells. Put plainly: green:red ratio imaging of fibroblasts expressing iATPSnFR2-HaloTag variants. Format: cell-based, mouse. The following applies: 10 mM 2dOG replacing 10 mM glucose. On the procedure: (§1) Rho° and the parental LMTK- cells were maintained in T-75 flasks with Dulbecco’s Modified Eagle's Medium (DMEM) + 10% Fetal Bovine Serum (FBS) + 1 mM pyruvate + 5 µM uridine. Two days prior to transfection, they were split into separate rows of a 24-well plate (half Rho°, half LMTK) at 0.6 and 0.1 million cells per well, respectively. Cells were transfected with iATPSnFR2.HaloTag variants by lipofectamine (0.5 µg DNA + 2 µL lipofectamine 2,000 per well) for 4 to 6 h in DMEM lacking FBS or antibiotics. Transfection medium was replaced with fresh DMEM + 10% FBS + penicillin/streptomycin overnight. Cells were labeled with JFX650 HaloTag ligand by adding the fluorophore to 100 nM for an hour. Cells were washed with Mammalian Cell Imaging Buffer and imaged in a Cytation 5 imaging reader (BioTek) over the course of about 2 h. After about 20 min of imaging to establish a baseline fluorescence, the culture plate was removed from the instrument, and buffer was replaced with the query buffer. The equilibration buffer contained 10 mM glucose, and the query buffers contained 10 mM 2dOG.
(§2) Images were background subtracted and aligned for movement artifacts with the Gen5 software package that controls the Cytation 5 instrument. Images were assembled as TIF stacks and imported into ImageJ. […] Those ROIs were used to determine the ratio of green to red fluorescence for each well. […]

Experiment [2] deals with Rho° cells. The description is as above. Format: cell-based, mouse. Conditions: 10 mM 2dOG replacing 10 mM glucose. The protocol:
as §1, §2

Experiment [3] concerns T1, iATPSnFR2.A95K.
T1 construct: epsilon subunit residues 1-109, linker 1 VLVG, cpSFGFP, linker 2 ICV, residues 110-129, C-terminal HaloTag conjugated to JFX650
Put plainly: Equilibrium fluorescence titration of 0.2 µM purified sensor HaloTag-JFX650 conjugate with ATP and ADP head-to-head (ex 485 nm, em 535 nm) in Mammalian Cell Imaging Buffer (20 mM HEPES, 119 mM NaCl, 2.5 mM KCl, 2 mM MgCl2, 2 mM CaCl2, pH 7.2). The following applies: n = 3; read-out: Binding curve fits, in µM, for ATP and ADP (affinity). On the procedure: (§3) Purified protein was mixed with 1.1 molar equivalents of JFX650 HaloTag ligand and incubated at room temperature for 1 h and then at 4 °C overnight. Excess HaloTag ligand was removed by gel filtration on a PD-10 column (GE Life Sciences) and reconcentrated by ultrafiltration.
(§4) All in vitro assays were performed in Mammalian Cell Imaging Buffer unless otherwise noted. iATPSnFR2 equilibrium measurements (affinity, specificity, pH) were performed with 0.2 µM protein in a Tecan Spark fluorimeter with 20 nm bandpass windows and excitation at 485 nm and emission at 535 nm.
(§5) Supplementary Figure 1a. In vitro characterization: ATP & ADP affinity. Three variants of iATPSnFR2.HaloTag-JFX650 titrated with ATP (black) and ADP (grey), head-to-head. iATPSnFR2.S29W.A95K (left); iATPSnFR2.A95K (center); iATPSnFR2.A95A.A119L (right). Binding curve fits, in µM, for ATP and ADP are S29W.A95K: 4 µM, 400 µM. A95K: 16 µM, 780 µM.
(§6) A95A.A119L: 530 µM, 5300 µM. Error bars are s.d. of three technical replicates. […]

Experiment [4] has as its system T2, iATPSnFR2.A95A.A119L.
T2 construct: epsilon subunit residues 1-109, linker 1 VLVG, cpSFGFP, linker 2 ICV, residues 110-129, C-terminal HaloTag conjugated to JFX650
The experiment is described as above. Conditions: n = 3; read-out: Binding curve fits, in µM, for ATP and ADP (affinity). The protocol: as §3, §4, §5, §6

Experiment [5] concerns T3, iATPSnFR2.S29W.A95K.
T3 construct: epsilon subunit residues 1-109, linker 1 VLVG, cpSFGFP, linker 2 ICV, residues 110-129, C-terminal HaloTag conjugated to JFX650
Described as above. Conditions: n = 3; read-out: Binding curve fits, in µM, for ATP and ADP (affinity). On the procedure: as §3, §4, §5, §6

For experiment [6], the system named is T1, iATPSnFR2.A95K. The experiment can be described thus: Separate head-to-head equilibrium fluorescence titration of 0.2 µM purified sensor HaloTag-JFX650 conjugate with ATP and other nucleoside triphosphates (ex 485 nm, em 535 nm) in Mammalian Cell Imaging Buffer, pH 7.2. The following applies: n = 3; read-out: Binding curve fits, in µM, for ATP, CTP, GTP (binding specificity). On the procedure:
as §3, §4
(§7) [NTP], µM [NTP], µM [NTP], µM
(§8) Supplementary Figure 1d. In vitro characterization: binding specificity. iATPSnFR2 affinity for ATP
(§9) and other nucleoside triphosphates. Three variants of iATPSnFR2.HaloTag-JFX650 titrated with ATP
(§10) and other NTPs, head-to-head. S29W.A95K (left); A95K (center); A95A.A119L (right). ATP (black),
(§11) CTP (cyan), GTP (grey), TTP (purple). Binding curve fits, in µM, for ATP, CTP, GTP are S29W.A95K:
(§12) Error bars are s.d. of three technical replicates.

Experiment [7] deals with T2, iATPSnFR2.A95A.A119L. Described as above. The following applies: n = 3; read-out: Binding curve fits, in µM, for ATP, CTP, GTP (binding specificity). On the procedure: as §3, §4, §7, §8, §9, §10, §11, §12
Experiment [8] deals with T3, iATPSnFR2.S29W.A95K. The experiment is described as above. The following applies: n = 3; read-out: Binding curve fits, in µM, for ATP, CTP, GTP (binding specificity). On the procedure: as §3, §4, §7, §8, §9, §10, §11, §12
Experiment [9] concerns nerve terminals of dissociated hippocampal neurons. The experiment can be described thus: ATP depletion in nerve terminals during AP firing. Conditions: 5 mM glucose + 10 µM KA, 6 s at 50 Hz. It counts as cell-based, Sprague-Dawley rats. On the procedure:
(§13) Primary neuronal cultures were prepared as previously described ([31]). Hippocampal CA1 to CA3 regions were dissected, dissociated, and plated onto poly-L-ornithine-coated coverslips. Plating media consisted of the minimal essential medium, 0.5% glucose, insulin (0.024 g/L), transferrin ([…]), GlutaMAX 1%, N-21 (2%), and fetal bovine serum (10%). After 1 to 3 days in vitro (DIV), cells were fed and maintained in media with the following modifications: cytosine β-D-arabinofuranoside (4 µM) and FBS 5%. Cultures were incubated at 37 °C in a 95% air/5% CO2 incubator. Calcium phosphate–mediated gene transfer was performed on DIV 6 to 8, and neurons were used for experiments on DIV 14 to 21.
(§14) Coverslips were loaded onto a custom chamber ([32]), mounted on a Zeiss inverted microscope and perfused at ~100 µL min^–1 with Tyrode’s solution containing: 119 mM NaCl, 2.5 mM KCl, 5 mM glucose, 50 mM HEPES, 2 mM CaCl2, 2 mM MgCl2, 50 µM DL-2-amino-5-phosphonovaleric acid (AP5), and 10 µM 6-cyano-7-nitroquinoxaline-2,3-dione (CNQX), adjusted to pH 7.4. […] Fluorescence was stimulated with OBIS 488 nm LX or OBIS 637 nm LS lasers (Coherent) passing through a laser speckle reducer (LSR 3005 at 12° diffusion angle, Optotune). […]

Experiment [10] has as its system axonal mitochondria of primary hippocampal neurons. The experiment can be described thus: mitochondrial matrix ATP imaging in axonal mitochondria of primary neurons. Format: cell-based, Sprague-Dawley rats. The following applies: 10 µM, perfusion; KA in 5 mM glucose; oligomycin in 1.25 mM lactate + 1.25 mM pyruvate.
Description: iATPSnFR2.HaloTag variants were subcloned by restriction digest into an AAV vector with a CAG promoter via BglII/PstI digest from the bacterial expression vector. The pAAV.CAG vector includes an extra serine after the initial methionine and lacks a polyhistidine tag. To target the sensor to the mitochondrial matrix, four repeats of COX8(mito) leader sequence ([…]) separated by spacer (IHSLPPEGPW) were introduced at the N terminus of iAPTSnFR2(A95A/A119L). HaloTag was incorporated at the N-terminal of iATPSnFR2.A95A.A119L separated by a linker (LQSTGSGNAVGQDTQER). […]
as §14
Time series of imaging pairs (HaloTag and iATPSnFR2) were split into two independent image series using a custom-written Fiji routine to facilitate analysis. […] Synaptic boutons signals were analyzed using homemade script routines in Igor-pro v6.3.7.2 (WaveMetrics, Lake Oswego, OR, USA). […]

Experiment [11] concerns synaptic boutons of hippocampal neurons. Put plainly: spontaneous ATP depletion in synaptic boutons (synaptophysin-targeted iATPSnFR2). It counts as cell-based, Sprague-Dawley rats. Conditions: 5 mM glucose + 10 µM KA + 0.3 µM TTX, iATPSnFR2.A95A.A119L.HaloTag-JFX650. The protocol: as §13, §14

Consider `O=CC[C@@H](O)[C@H](O)[C@H](O)CO` [2dOG, 2-deoxyglucose], for which the figures for the “effect on green fluorescence of iATPSnFR2 variants” value in experiment [1] and in experiment [2] were “decreased fluorescence only in those expressing the weakest affinity variant” and “green fluorescence rapidly dropped”, respectively.

In the case of `Nc1ncnc2c1ncn2[C@@H]1O[C@H](COP(=O)(O)OP(=O)(O)O)[C@@H](O)[C@H]1O` [ADP, adenosine diphosphate], the Kd in experiment [3] turned out to be 780 µM; in experiment [4], 5300 µM; in [5], 400 µM.

Take `Nc1ncnc2c1ncn2[C@@H]1O[C@H](COP(=O)(O)OP(=O)(O)OP(=O)(O)O)[C@@H](O)[C@H]1O` [ATP, adenosine triphosphate]: the Kd came out at 30 µM in [6]; 750 µM in [7]; 20 µM in [8]; 16 µM in experiment [3]; 530 µM in experiment [4]; 4 µM in [5].

Consider `Nc1ccn([C@@H]2O[C@H](COP(=O)(O)OP(=O)(O)OP(=O)(O)O)[C@@H](O)[C@H]2O)c(=O)n1` [CTP, cytidine triphosphate], for which the Kd in experiment [6] is 100 µM; in [7], ~10000 µM; in experiment [8], 50 µM.

As to `Nc1nc2c(ncn2[C@@H]2O[C@H](COP(=O)(O)OP(=O)(O)OP(=O)(O)O)[C@@H](O)[C@H]2O)c(=O)[nH]1` [GTP, guanosine triphosphate], the Kd is 1500 µM in [6], ~10000 µM in [7] and 430 µM in [8].

As to `CC(C)[C@H]1CC[C@@]2(CO2)[C@H]2C(=O)OCC(C(=O)O)=C[C@H]12` [KA, koningic acid], in [9], the “effect on iATPSnFR2 fluorescence during AP stimulation” value was “even greater decrease in fluorescence that did not recover”. Also, the “effect on mitochondrial ATP signal (mito-iATPSnFR2.HaloTag)” value in experiment [10] is recorded as “rapid drop in the ATP signal”. Also, in experiment [11], the “effect on average green to red fluorescence ratio in boutons” value is given as “gradually declined over a 5 to 10 min period”.

In the case of `CC[C@H]1/C=C/C=C/C[C@@H](C)[C@H](O)[C@@](C)(O)C(=O)[C@@H](C)[C@H](O)[C@@H](C)C(=O)[C@@H](C)[C@H](O)[C@@H](C)/C=C/C(=O)O[C@@H]2[C@H](C)[C@H](CC1)O[C@]1(CC[C@H](C)[C@H](C[C@@H](C)O)O1)[C@H]2C` [oligomycin], in experiment [10], the “effect on mitochondrial ATP signal (mito-iATPSnFR2.HaloTag)” value was “further collapse of the ATP signal”.
